Measurements published in publication PMC11324046, “Second-generation piperazine derivatives as promising radiation countermeasures” (RSC Medicinal Chemistry, 2024).
“Also recorded” adds a separate entry of the source.

Legend:
mice = tested on: mice; parameters: method as in PMID 29852368; conditions: 200 mg kg^−1 dose; cited from earlier work
[1] = WST-1 proliferation assay, Jurkat; format: cell-based; conditions: human, Jurkat cells (acute T-cell leukemia), vs 0.1% DMSO control = 100%, mean ± standard deviation
Description: (§1) A thorough analysis of antiproliferative activity was performed across various cell culture types representing different histotypes: leukemia (Jurkat, MOLT-4), lung adenocarcinoma (A549), colorectal adenocarcinoma (HT-29), pancreatic carcinoma (PANC-1), breast adenocarcinoma (MCF-7), osteosarcoma (SAOS-2), and one non-cancerous cell line (fetal lung fibroblasts MRC-5). The cell lines were exposed to the newly synthesized compounds at a concentration of 100 μM for 48 h in a single-dose treatment. Changes in cell proliferation compared to the vehicle 0.1% dimethyl sulfoxide (DMSO) control were determined using the WST-1 assay, which is based on mitochondrial dehydrogenase metabolic activities. […] The overall cytotoxic activity of each compound was expressed as growth percent (GP) – the mean of the proliferation of all cell lines treated with the same compound.
(§2) Selected human tumor and non-tumor cell lines Jurkat (acute T-cell leukemia), MOLT-4 (acute lymphoblastic leukemia), A549 (lung carcinoma), HT-29 (colorectal adenocarcinoma), PANC-1 (pancreas epithelioid carcinoma), MCF-7 (breast adenocarcinoma), SAOS-2 (osteosarcoma) and MRC-5 (normal lung fibroblasts) were purchased from either American Type Culture Collection (ATCC; VA, USA) or Sigma-Aldrich (St. Louis, MO, USA) and cultured according to the provider's culture method guidelines. All cell lines were maintained at 37 °C in a humidified 5% carbon dioxide and 95% air incubator. Cells in the maximum range of either 10 passages for the adherent cell lines (A549, HT-29, PANC-1, MCF-7, SAOS-2, and MRC-5), or 20 passages for suspension cell lines (Jurkat, MOLT-4,) and in an exponential growth phase were used for this study. Screening of the antiproliferative effect and growth percent calculation were conducted as follows: each cell line was seeded at previously established optimal density (1–50 × 10^3 cells per well) in a 96-well plate (TPP, Trasadingen, Switzerland) and cells were allowed to settle overnight. Cells were treated for 48 h with compounds at a final concentration of 100 μM. At the end of the cultivation period, the WST-1 proliferation assay (Roche, Basel, Switzerland) was performed according to the manufacturer's protocol. The absorbance was measured at 440 nm using a Tecan Spark multimode microplate reader (Tecan, Mannedorf, Switzerland). Each value is the mean of three independent experiments and represents the percentage of proliferation (100% cell proliferation for 0.1% DMSO mock-treated control cells). The GP value was calculated for each compound tested. GP represents the mean of the percentage proliferation decrease of all cell lines treated with the same compound.

[2] = WST-1 proliferation assay, HT-29; format: cell-based; conditions: human, HT-29 cells (colorectal adenocarcinoma), vs 0.1% DMSO control = 100%, mean ± standard deviation
Description: as §1, §2

[3] = WST-1 proliferation assay, PANC-1; format: cell-based; conditions: human, PANC-1 cells (pancreas epithelioid carcinoma), vs 0.1% DMSO control = 100%, mean ± standard deviation
Description: as §1, §2

[4] = WST-1 proliferation assay, MOLT-4; format: cell-based; conditions: human, MOLT-4 cells (acute lymphoblastic leukemia), vs 0.1% DMSO control = 100%, mean ± standard deviation
Description: as §1, §2

[5] = WST-1 proliferation assay, A549; format: cell-based; conditions: human, A549 cells (lung carcinoma), vs 0.1% DMSO control = 100%, mean ± standard deviation
Description: as §1, §2

[6] = tested on: panel of human cell lines; assay: Overall cytotoxicity screening across the cell line panel (growth percent); format: cell-based; conditions: 100 μM, 48 h, single-dose treatment, WST-1
Description: as §1
Selected human tumor and non-tumor cell lines Jurkat (acute T-cell leukemia), MOLT-4 (acute lymphoblastic leukemia), A549 (lung carcinoma), HT-29 (colorectal adenocarcinoma), PANC-1 (pancreas epithelioid carcinoma), MCF-7 (breast adenocarcinoma), SAOS-2 (osteosarcoma) and MRC-5 (normal lung fibroblasts) were purchased from either American Type Culture Collection (ATCC; VA, USA) or Sigma-Aldrich (St. Louis, MO, USA) and cultured according to the provider's culture method guidelines. […]

[7] = WST-1 proliferation assay, SAOS-2; format: cell-based; conditions: human, SAOS-2 cells (osteosarcoma), vs 0.1% DMSO control = 100%, mean ± standard deviation
Description: as §1, §2

[8] = WST-1 proliferation assay, MRC-5; format: cell-based; conditions: human, MRC-5 cells (normal lung fibroblasts), vs 0.1% DMSO control = 100%, mean ± standard deviation
Description: as §1, §2

[9] = WST-1 proliferation assay, MCF-7; format: cell-based; conditions: human, MCF-7 cells (breast adenocarcinoma), vs 0.1% DMSO control = 100%, mean ± standard deviation
Description: as §1, §2

Structure (SMILES)	Survival of mice (in words) (mice)	viability at 48 h, 100 µM [1] [%]	viability at 48 h, 100 µM [2] [%]	viability at 48 h, 100 µM [3] [%]	viability at 48 h, 100 µM [4] [%]	viability at 48 h, 100 µM [5] [%]	Overall cytotoxic activity across cell lines (in words) [6]	viability at 48 h, 100 µM [7] [%]	viability at 48 h, 100 µM [8] [%]	viability at 48 h, 100 µM [9] [%]
O=C1N=C(N2CCN(CCO)CC2)S/C1=C\c1ccc(-c2ccccc2)cc1 [CLZ-8]	significantly improved their survival									
OCCN1CCN(CC(O)COc2ccc(Oc3ccc(F)cc3)cc2)CC1 (stereo not shown) [Compound 7, 1-(4-(2-Hydroxyethyl)piperazin-1-yl)-3-(4-(4-fluorophenoxy)phenoxy)propan-2-ol]		2	12 ± 2	55 ± 6	6 ± 5	6 ± 2	severe toxicity to most of the tested cell lines; also recorded: exhibited stand-alone cytotoxicity	15 ± 5	0	7 ± 7
OCCN1CCN(CC(O)COc2cc(Cl)c(Cl)cc2Cl)CC1 (stereo not shown) [Compound 8, 1-(4-(2-Hydroxyethyl)piperazin-1-yl)-3-(2,4,5-trichlorophenoxy)propan-2-ol]		28 ± 4	33 ± 3	101 ± 2	41 ± 8	92 ± 12	severe toxicity to most of the tested cell lines; also recorded: exhibited stand-alone cytotoxicity	42 ± 5	15 ± 10	41 ± 7
